≈ marks a conversion by molar mass, not a printed value. Read-outs that look alike come from different tables or passages of the source. Each block holds one compound with its values, some of them ahead of it.
Assays:
Assay type in all cases: cell-based
A. fumigatus ATCC204305 = test: Antifungal activity test, MIC by broth microdilution (CLSI M38-A2)
Procedure: (§1) The Minimum Inhibitory Concentration (MIC) values of the present compound against yeast and filamentous fungi were determined by broth microdilution assay according to the Clinical Laboratory Standards Institute (CLSI) guidelines outlined in documents M27-A3 and M38-A2. The medium used in the assay consisted of RPMI1640 (with glutamine, without bicarbonate) with 2% glucose and 0.165 mol/L morpholinepropanesulfonic acid (MOPS) with pH adjusted to 7.0 using 1 mol/L sodium hydroxide. The present compound was dissolved in dimethyl sulfoxide (DMSO). A series of two-fold dilutions were prepared in DMSO, and then 2 μL of the diluted compound was added to each well in 96-well sterile plates. Each inoculum was prepared by diluting a suspension of Candida spp. or a conidia suspension of Aspergillus spp. suspended in sterile saline solution, and then 200 μL was added to each well to a predetermined concentration using RPMI/MOPS (final concentration for each solution: approximately 1×10^3 cells/mL and approximately 1×10^4 CFU/mL). Plates of Candida spp. and Aspergillus spp. were incubated at 35° C. for 24-48 hours. The MIC was defined as the lowest concentration giving 100% inhibition compared to the growth control.

A. flavus ATCC204304 = test: as above
Procedure: as §1

C. albicans ATCC90028 = test: Antifungal activity test, MIC by broth microdilution (CLSI M27-A3)
Procedure: as §1

[1] = test system: red blood cells (5% RBC suspension); test: Test Example 2-1: in vitro hemolytic activity test (upper limit 50, 80, 100 or 200 μmol/L); settings: 5% RBC suspension, 37° C., one hour, read-out: hemolysis IC50
How it was run: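 A 5% suspension of washed red cells in Earle's medium was exposed to doubling dilutions of compound from DMSO, with maxima of 50, 80, 100 or 200 μmol/L final, for 1 h at 37 °C, 5% CO2. Supernatant absorbance at 540 nm was normalised to water-lysed cells. IC50 is the concentration giving 50% hemolysis; ">" values exceed the top concentration.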

[2] = Aspergillus fumigatus, A. fumigatus ATCC204305, broth microdilution, 35° C., 24-48 hours, 100% inhibition, read-out: MIC
[3] = Aspergillus flavus, A. flavus ATCC204304, broth microdilution, 35° C., 24-48 hours, 100% inhibition, read-out: MIC
[4] = Candida albicans, C. albicans ATCC90028, broth microdilution, 35° C., 24-48 hours, 100% inhibition, read-out: MIC
[5] = A. fumigatus ATCC204305, broth microdilution, 35° C., 24-48 hours, 100% inhibition
[6] = A. flavus ATCC204304, broth microdilution, 35° C., 24-48 hours, 100% inhibition
[7] = C. albicans ATCC90028, broth microdilution, 35° C., 24-48 hours, 100% inhibition
[8] = hemolysis method 50 (upper concentration 50 μmol/L)
[9] = A. fumigatus ATCC204305, lowest concentration giving 100% inhibition, 35° C., 24-48 hours
[10] = A. flavus ATCC204304, lowest concentration giving 100% inhibition, 35° C., 24-48 hours
[11] = C. albicans ATCC90028, lowest concentration giving 100% inhibition, 35° C., 24-48 hours

Structure (SMILES): C[C@@H]1[C@H](O)[C@@H](C)/C=C/C=C/C=C/C=C/C=C/C=C/C=C/[C@H](O[C@@H]2O[C@H](C)[C@@H](O)[C@H](N)[C@@H]2O)C[C@@H]2O[C@](O)(C[C@@H](O)C[C@@H](O)[C@H](O)CC[C@@H](O)C[C@@H](O)CC(=O)O[C@H]1C)C[C@H](O)[C@H]2NC(=O)NC(CO)CO [I-40]
- MIC (A. fumigatus ATCC204305; [2]): 0.25 µg/mL (≈ 0.247 µM)
- MIC (A. flavus ATCC204304; [3]): 0.5 µg/mL (≈ 0.494 µM)
- MIC (C. albicans ATCC90028; [4]): 0.125 µg/mL (≈ 0.123 µM)
- IC50 ([1]; Erythrocyte, 1 h, hemolysis method 80 (upper concentration 80 μmol/L)): > 80 µM

Structure (SMILES): C[C@@H]1[C@H](O)[C@@H](C)/C=C/C=C/C=C/C=C/C=C/C=C/C=C/[C@H](O[C@@H]2O[C@H](C)[C@@H](O)[C@H](N)[C@@H]2O)C[C@@H]2O[C@](O)(C[C@@H](O)C[C@@H](O)[C@H](O)CC[C@@H](O)C[C@@H](O)CC(=O)O[C@H]1C)C[C@H](O)[C@H]2NC(=O)NC[C@H](O)C(=O)O [I-259]
- MIC (A. fumigatus ATCC204305; [5]): 1 µg/mL (≈ 0.974 µM)
- MIC (A. flavus ATCC204304; [6]): 0.5 µg/mL (≈ 0.487 µM)
- MIC (C. albicans ATCC90028; [7]): 0.5 µg/mL (≈ 0.487 µM)
- IC50 [1, 8]: > 50 µM

Structure (SMILES): C[C@@H]1[C@H](O)[C@@H](C)/C=C/C=C/C=C/C=C/C=C/C=C/C=C/[C@H](O[C@@H]2O[C@H](C)[C@@H](O)[C@H](NC(=O)CN(C)C)[C@@H]2O)C[C@@H]2O[C@](O)(C[C@@H](O)C[C@@H](O)[C@H](O)CC[C@@H](O)C[C@@H](O)CC(=O)O[C@H]1C)C[C@H](O)[C@H]2NC(=O)NCCC(N)=O [I-344]
- MIC (A. fumigatus ATCC204305; [9]): 1 µg/mL (≈ 0.914 µM)
- MIC (A. flavus ATCC204304; [10]): 0.5 µg/mL (≈ 0.457 µM)
- MIC (C. albicans ATCC90028; [11]): 0.5 µg/mL (≈ 0.457 µM)

Structure (SMILES): C[C@@H]1[C@H](O)[C@@H](C)/C=C/C=C/C=C/C=C/C=C/C=C/C=C/[C@H](O[C@@H]2O[C@H](C)[C@@H](O)[C@H](N)[C@@H]2O)C[C@@H]2O[C@](O)(C[C@@H](O)C[C@@H](O)[C@H](O)CC[C@@H](O)C[C@@H](O)CC(=O)O[C@H]1C)C[C@H](O)[C@H]2NC(=O)N(O)CC(N)=O [I-273]
- MIC (A. fumigatus ATCC204305; Aspergillus fumigatus, ATCC204305): 0.5 µg/mL (≈ 0.494 µM)
- MIC (A. flavus ATCC204304; Aspergillus flavus, ATCC204304): 0.5 µg/mL (≈ 0.494 µM)
- MIC (C. albicans ATCC90028; Candida albicans, ATCC90028): 0.25 µg/mL (≈ 0.247 µM)

Structure (SMILES): C[C@@H]1[C@H](O)[C@@H](C)/C=C/C=C/C=C/C=C/C=C/C=C/C=C/[C@H](O[C@@H]2O[C@H](C)[C@@H](O)[C@H](N)[C@@H]2O)C[C@@H]2O[C@](O)(C[C@@H](O)C[C@@H](O)[C@H](O)CC[C@@H](O)C[C@@H](O)CC(=O)O[C@H]1C)C[C@H](O)[C@H]2NC(N)=O [I-36]
- MIC (A. fumigatus ATCC204305; [2]): 1 µg/mL (≈ 1.07 µM)
- MIC (A. flavus ATCC204304; [3]): 1 µg/mL (≈ 1.07 µM)
- MIC (C. albicans ATCC90028; [4]): 0.25 µg/mL (≈ 0.266 µM)

Continued, in another order:

- MIC (A. fumigatus ATCC204305; [5]): 1 µg/mL (≈ 0.961 µM)
- MIC (A. flavus ATCC204304; [6]): 0.5 µg/mL (≈ 0.481 µM)
- MIC (C. albicans ATCC90028; [7]): 0.5 µg/mL (≈ 0.481 µM)
Structure (SMILES): C[C@@H]1[C@H](O)[C@@H](C)/C=C/C=C/C=C/C=C/C=C/C=C/C=C/[C@H](O[C@@H]2O[C@H](C)[C@@H](O)[C@H](N)[C@@H]2O)C[C@@H]2O[C@](O)(C[C@@H](O)C[C@@H](O)[C@H](O)CC[C@@H](O)C[C@@H](O)CC(=O)O[C@H]1C)C[C@H](O)[C@H]2NC(=O)NC[C@H](O)CC(=O)O [I-250]
- IC50 [1, 8]: > 50 µM

- MIC (A. fumigatus ATCC204305; [5]): 1 µg/mL (≈ 0.964 µM)
- MIC (A. flavus ATCC204304; [6]): 1 µg/mL (≈ 0.964 µM)
- MIC (C. albicans ATCC90028; [7]): 0.25 µg/mL (≈ 0.241 µM)
Structure (SMILES): C[C@@H]1[C@H](O)[C@@H](C)/C=C/C=C/C=C/C=C/C=C/C=C/C=C/[C@H](O[C@@H]2O[C@H](C)[C@@H](O)[C@H](N)[C@@H]2O)C[C@@H]2O[C@](O)(C[C@@H](O)C[C@@H](O)[C@H](O)CC[C@@H](O)C[C@@H](O)CC(=O)O[C@H]1C)C[C@H](O)[C@H]2NC(=O)NC1CN(CCO)C1 [I-165]

- MIC (A. fumigatus ATCC204305; [9]): 1 µg/mL (≈ 0.938 µM)
- MIC (A. flavus ATCC204304; [10]): 1 µg/mL (≈ 0.938 µM)
- MIC (C. albicans ATCC90028; [11]): 0.25 µg/mL (≈ 0.234 µM)
Structure (SMILES): CNC(=O)N[C@H]1[C@@H]2C[C@@H](O[C@@H]3O[C@H](C)[C@@H](O)[C@H](N(CCCN)CCCN)[C@@H]3O)/C=C/C=C/C=C/C=C/C=C/C=C/C=C/[C@H](C)[C@@H](O)[C@@H](C)[C@H](C)OC(=O)C[C@H](O)C[C@H](O)CC[C@@H](O)[C@H](O)C[C@H](O)C[C@](O)(C[C@@H]1O)O2 [I-383]

- MIC (A. fumigatus ATCC204305; [5]): 0.5 µg/mL (≈ 0.487 µM)
- MIC (A. flavus ATCC204304; [6]): 0.5 µg/mL (≈ 0.487 µM)
- MIC (C. albicans ATCC90028; [7]): 0.5 µg/mL (≈ 0.487 µM)
Structure (SMILES): C[C@@H]1[C@H](O)[C@@H](C)/C=C/C=C/C=C/C=C/C=C/C=C/C=C/[C@H](O[C@@H]2O[C@H](C)[C@@H](O)[C@H](N)[C@@H]2O)C[C@@H]2O[C@](O)(C[C@@H](O)C[C@@H](O)[C@H](O)CC[C@@H](O)C[C@@H](O)CC(=O)O[C@H]1C)C[C@H](O)[C@H]2NC(=O)NC[C@@H](O)C(=O)O [I-311]
- IC50 [1, 8]: > 50 µM
